Consider two compounds from patent US20260283959A1, “APPLICATION OF […] POWDER INHALER IN PREPARATION OF MEDICAMENT FOR TREATING ACUTE LUNG INJURY” (Anhui University of Chinese Medicine, priority 2025, published 2026).

SMILES strings stand for the structures. Converted amounts (≈) assume the structure as drawn. Like-named read-outs stand apart in the source and are kept apart here.

In data set [1] the test system is LPS-induced ALI model in rats. The experiment in a line: Serum inflammatory cytokine levels (ELISA) in LPS-induced rat ALI model. Type of data set: in vivo. The note with it: P<0.0001; 6 h after administration. The protocol: (§1) Male SD rats were acclimatized for one week, and an ALI model in rats was established using tracheal instillation of LPS. The specific modeling steps were as follows: the rats were first anesthetized with isoflurane, then the rats were fixed in a supine position to facilitate intratracheal administration to the lungs. LPS (8 mg/kg) was nebulized into the alveoli using a microsprayer. The microsprayer was then removed, the animal was placed in a vertical position, and gently rotated for 30 seconds to ensure even distribution of LPS throughout the lungs.
(§2) Referring to relevant literature on synephrine, the maximum human dose of synephrine is 100 mg. Based on the clinically equivalent dose, the dose administered to the rats via gavage was 9 mg/kg, and the low-dose inhalation group was 4.5 mg/kg.
Six hours after drug administration, rats were anesthetized by intraperitoneal injection of sodium pentobarbital. […]
Rat serum was collected, and the levels of TNF-α, IL-6, IL-8, IL-1β, and IL-1α were measured separately according to the rat ELISA kit instructions. The OD value was measured at 450 nm using a microplate reader. A standard curve was plotted with the concentrations of TNF-α, IL-8, IL-6, IL-1β, and IL-1α standards on the x-axis and the absorbance values on the y-axis. The concentrations of TNF-α, IL-6, IL-8, IL-1β, and IL-1α in serum were calculated based on the standard curve.

Data set [2] relates to LPS-induced ALI model in rats. The data set can be described thus: HE and Masson staining of lung tissue in LPS-induced rat ALI model. Type of data set: in vivo. The protocol: as §1, §2
Lung tissue fixed in 4% paraformaldehyde was dehydrated, routinely embedded in paraffin, and prepared into 5 μm sections. After dewaxing, the sections were routinely stained with HE, dehydrated, mounted, and observed under a microscope to examine the structure and morphological characteristics of the rat lung tissue in each group.
The sections were routinely dewaxed to water. Hydrophobic zones were drawn, and Bouin's solution was added dropwise. The sections were then covered and incubated at 37° C. After incubation, they were rinsed with running water until the yellow color disappeared. […]

Data set [3] relates to LPS-induced ALI model in rats. The data set can be described thus: Total protein content in BALF (BCA assay) of ALI rats. Type of data set: in vivo, rat. Conditions: 6 h after administration. On the procedure: as §1, §2
After blood collection, the rats were placed in a supine position on the operating table until their hearts stopped beating. […]
This study used the bicinchoninic acid (BCA) assay to determine the total protein content in BALF. The tissue weight was accurately measured, and physiological saline was added according to the weight-to-volume ratio. […] The test solution was added sequentially according to the protein quantification kit instructions. The absorbance was measured at 562 nm using a microplate reader, and the protein concentration in BALF was calculated.

The nature of data set [4]: In vitro pulmonary deposition, next-generation pharmaceutical impactor (NGI). Type of data set: physicochemical. Conditions: 75 L/min, 3.2 s, 10 mg capsules. An excerpt: The in vitro pulmonary deposition of synephrine DPI samples was investigated using the next-generation pharmaceutical impactor (NGI). The various components of the instrument were connected sequentially, including the NGI device, an adapter, an artificial throat, a pre-separator, and a collection tray. After installation, the airtightness and uniformity of the device were checked. The gas flow rate was 75 L/min. At this gas flow rate, the cutoff values Da of each stage of the collection tray were as follows: S1=7.145 μm, S2=3.971 μm, S3=2.522 μm, S4=1.495 μm, S5=0.835 μm, S6=0.481 μm, S7=0.293 μm, and the micro-orifice collector (MOC)=0.104 μm.
The specific method was as follows: 10 mg synephrine micropowder and API were added to No. 3 hydroxypropyl methylcellulose capsules, respectively, and then loaded into a single-capsule inhalation device. After connecting to an NGI, the measurement was performed. Five capsules were inhaled each time. The inhalation flow rate was 75 L/min, and the inhalation duration was 3.2 s. Drug powder deposited at each stage of the NGI was collected using ultrapure water. The synephrine content was determined under UV conditions, and the FPF and respirable fraction (RF) were calculated.

Data set [5] in a line: Pharmacokinetic study in rats, plasma synephrine by LC-MS/MS. Type of data set: in vivo, rat. The note with it: for Cmax: rat plasma. The protocol:
SPF-grade male SD rats, weighing 180-220 g, were housed under identical experimental conditions: temperature (22±1)° C., relative humidity (55±5) %, and a 12-hour light/dark cycle. They had free access to food and water and underwent a one-week acclimatization period before the experiment.
Column: Hypersil GOLD C8 (100 mm×2.1 mm; 3 μm); Mobile phase: Phase A: 0.1% formic acid aqueous solution, Phase B: acetonitrile; Flow rate: 0.3 mL/min; Column temperature: 40° C.; Injection volume: 2 μL; Gradient elution program: 0-1 min, 5% B; 1-4 min, 5%-90% B; 4-5 min, 90%-5% B.
Mass spectrometry was performed in electrospray ionization (ESI) positive ion scanning mode, using multiple reaction monitoring (MRM) detection mode. The collision gas was high-purity nitrogen; capillary voltage: 3.5 kV; nebulizer pressure: 45 psi; desiccator temperature: 300° C.; drying gas flow rate: 5 L/min (N2); sheath gas temperature: 250° C.; sheath gas flow rate: 11 L/min (N2).
Experimental animals were randomly divided into three groups: (1) tail vein injection group, (2) pulmonary inhalation group, and (3) gavage group, with 5 animals in each group. Animals were fasted for 12 h before administration but had free access to water.
Rats were fasted for 12 hours before the experiment but were allowed free access to water. The rats were weighed to calculate the dosage and numbered. After administration, 0.2 mL of blood was collected from the orbital vein at time points of 2 min, 5 min, 10 min, 15 min, 30 min, 1 h, 2 h, 3 h, 4 h, and 6 h. The blood samples were placed in an EP tube containing heparin sodium and were centrifuged at 3500 rpm for 15 min. The supernatant plasma was separated and stored at −80° C. freezer.
190 μL of a rat plasma sample was accurately pipetted into an EP tube. Then, 10 μL of an internal standard solution was added, and the sample was vortexed for 60 s. Next, 400 μL of acetonitrile was added, and the sample was vortexed for 60 s to precipitate proteins. The sample was then centrifuged at 10000 rpm for 15 mins, and the supernatant was passed through a 0.22 μm microporous filter membrane. Finally, the filtered sample was placed in a glass insert for LC-MS/MS analysis.

A short description of data set [6]: Solubility of synephrine API in different solvents by HPLC. Type of data set: physicochemical. The protocol:
Column: Agilent C18 (250 mm×4.6 mm, 5 μm) column; mobile phase: 0.1% formic acid (A)-acetonitrile (B); detection wavelength: 273 nm; flow rate: 1 mL/min; column temperature: 30° C.; injection volume: 10 μL; isocratic elution: 1 min to 10 min; 97% A.
Excess synephrine API was weighed and placed in an EP tube. Then, 1.00 mL of each of the following solutions was added: water, anhydrous ethanol, isopropanol, ethyl acetate, n-butanol, n-octanol, acetonitrile, and n-hexane. The mixture was sonicated (300 W, 40 kHz) until no further dissolution occurred. The tube was then centrifuged at 6000 r min^−1 for 15 min, filtered through a 0.22 μm microporous membrane, and the filtrate was diluted with methanol and analyzed under liquid chromatography conditions. The solubility of synephrine in different solvents was calculated.

Data set [7] relates to LPS-induced ALI model in rats. The data set can be described thus: Lung wet-to-dry weight ratio in LPS-induced rat ALI model. Type of data set: in vivo. Conditions: SYN 9 mg/kg gavage; SYN-DPI 4.5-18 mg/kg inhalation; 6 h after administration. On the procedure:
as §1, §2
After instillation of the left lung of the rats, the left and right lungs were collected, washed with physiological saline, and dried. The lower lobe of the left lung was used to determine the wet-to-dry weight ratio of the rat lung tissue. […]
The lower lobe of the left lung of the rat was collected, surface blood was removed, surface moisture was wiped off, and the lobe was weighed. The wet weight was recorded. The lobe was then dried in a 60° C. oven for 24 hours, and the dry weight was recorded. The degree of pulmonary edema was evaluated by calculating the lung wet/dry weight ratio. […]

The nature of data set [8]: Hygroscopicity by dynamic vapor sorption (DVS). Type of data set: physicochemical. The protocol: The hygroscopicity of synephrine API and DPI was analyzed using a dynamic vapor sorption (DVS) analyzer. The experimental temperature was set to room temperature (25° C.), the carrier gas was nitrogen, and the total gas flow rate was 200 mL/min. Samples were weighed and placed on the balance tray of the DVS analyzer. The relative humidity (RH) change program was set as required, and the humidity equilibrium time was also set.

For data set [9], the system named is LPS-induced RAW264.7 cells. The experiment in a line: LPS-induced RAW264.7 cellular inflammation model, ELISA of inflammatory mediators. Type of data set: cell-based. Conditions: Mus musculus, LPS-stimulated RAW264.7. The protocol: RAW264.7 cells in logarithmic growth phase were seeded at 100 μL per well in a 96-well plate and cultured at 37° C. and 5% CO2 for 24 hours. The supernatant was aspirated and discarded. 100 μL of medium containing synephrine at an appropriate concentration was added to each well for pretreatment for 1 h, followed by the addition of LPS-containing medium. The cells were then co-incubated with the test substance for 24 hours.
Based on the CCK-8 assay results, RAW264.7 cells in logarithmic growth phase were seeded in 96-well plates and divided into the control group, LPS group, LPS+SYN group, and LPS+SYN-DPI group. A cellular inflammation model was established. After culturing for 24 h, the supernatant from each well was collected and centrifuged at 3500 rpm for 10 min. The supernatant was collected and the subsequent procedures were strictly performed according to the ELISA kit instructions. The absorbance was measured at 450 nm using a microplate reader, and the contents of interleukin (IL)-1B, IL-6, tumor necrosis factor (TNF)-α, and nitric oxide (NO) were calculated.

For `C[C@@H]1C[C@H]2[C@@H]3CCC4=CC(=O)C=C[C@]4(C)[C@@]3(F)[C@@H](O)C[C@]2(C)[C@@]1(O)C(=O)CO` [Dex], the “expression levels of serum inflammatory cytokines (IL-1α, IL-1β, IL-6, IL-8, TNF-α) compared to the model group” value in data set [1] is reported as “significantly decreased”. In addition, the “pathological damage of rat lung tissue (HE, Masson)” value in data set [2] (Dex group, 3 mg/kg gavage) is recorded as “significantly alleviated”. The “total protein content in BALF compared with the LPS group” value in data set [3] is “significantly improve alveolar interstitial space”.
A word on the Cmax: it is the highest concentration seen after dosing. One may read the AUC(0-inf) as the area under the concentration-time curve extrapolated to infinity. High values mean high exposure, low ones low exposure. One may read the half-life as the time needed for the level to fall by half in the phase considered. Broadly, the AUC(0-t) is the area under the concentration-time curve up to a stated or last time point. One may read the solubility as the dissolved amount per volume that the medium holds. One may read the inhibition as the relative decrease from the control value, in per cent. Take `CNCC(O)c1ccc(O)cc1` (stereo not drawn) [SYN, Synephrine]: the “effective in vitro lung deposition rate” value in [4] was determined as 2.25%. In data set [4], this compound gave an emptying rate of 90.98%. Moreover, in data set [4], the “fine particle fraction (FPF)” value is 2.69%. The “respirable fraction (RF)” value in data set [4] came out at 41.26%. Also, the peak concentration (Cmax) was 1030 ng/mL in data set [5] (iv, injection group (tail vein)) and 302 ng/mL in data set [5] (po, gavage group). The same compound displayed an AUC(0-inf) in [5] (plasma, iv, rat, injection group (tail vein)) of 1540 ng·h/mL. The half-life was determined as 5.33 h in [5] (plasma, iv, rat, injection group (tail vein), read-out: half-life (t½)) and 2.29 h in data set [5] (plasma, po, rat, gavage group, read-out: half-life t½). Besides, the bioavailability in data set [5] (plasma, po, rat, gavage group, read-out: AUC(0-∞) as % of the injection group) amounted to 64.5%. Further, the AUC(0-t) in [5] (plasma, po, rat, gavage group, read-out: area-under-the-curve (AUC)(0-t)) is 876 ng·h/mL. In addition, the “Cmax as % of the injection group” value in data set [5] (rat, gavage group) came out at 29.24%. Further, the “half-life (t½) as % of the injection group” value in data set [5] (rat, gavage group) stood at 43.01%. Also, the “expression levels of serum inflammatory cytokines (IL-1α, IL-1β, IL-6, IL-8, TNF-α) compared to the model group” value in data set [1] is recorded as “significantly decreased”. Moreover, the solubility in data set [6] (organic solvent or mixture, solvent: Acetonitrile) was found to be 10620 ± 60 µg/mL (≈ 63.5 mM); in data set [6] (organic solvent or mixture, solvent: Anhydrous Ethanol), 17200 ± 270 µg/mL (≈ 103 mM); in data set [6] (organic solvent or mixture, solvent: Ethyl Acetate) it was 640 ± 10 µg/mL (≈ 3.83 mM); in data set [6] (organic solvent or mixture, solvent: Isopropanol) it was 7060 ± 120 µg/mL (≈ 42.2 mM); in data set [6] (organic solvent or mixture, solvent: n-Butanol), 8760 ± 20 µg/mL (≈ 52.4 mM); in data set [6] (organic solvent or mixture, solvent: n-Octanol), 3660 ± 10 µg/mL (≈ 21.9 mM). In [6] (solvent: Water), this compound gave a solubility of 13440 ± 20 µg/mL (≈ 80.4 mM). The “Solubility (in words)” value in [6] (solvent: n-hexane) is given as “almost insoluble”. Further, in data set [2] (SYN 9 mg/kg gavage vs SYN-DPI 4.5 mg/kg inhalation), the “pathological changes, SYN group compared with low-dose SYN-DPI group” value is “no significant difference in pathological changes”. Moreover, the “wet-to-dry weight ratio of rat lungs compared to the model group” value in data set [7] is recorded as “significant reduction”. Besides, the “hygroscopicity class (Chinese Pharmacopoeia 2020, 9103 guidelines)” value in [8] (90% RH) was “no or almost no hygroscopicity (hygroscopic weight gain less than 0.2%)”. In data set [8] (90% RH, 25° C.), the “maximum moisture adsorption / moisture absorption weight gain” value is 0.12%. For the same compound, in data set [8] (normal storage conditions (60% RH), 25° C.), the “moisture absorption weight gain percentage” value was “less than 0.2%”. Besides, in [9] (200 μM, read-out: inhibition of NO production), the inhibition at 200 µM is 16.1%. Further, the inhibition at 400 µM in [9] (400 μM, read-out: inhibition rate of IL-6 production) is 23.3%.
